Data on eleven molecules can be found in ChEMBL document CHEMBL1140426, “First structure-activity relationship study on dopamine D3 receptor agents with N-[4-(4-arylpiperazin-1-yl)butyl]arylcarboxamide structure” (J Med Chem, 2005).

Molecules are shown by their SMILES.

Assay [1] concerns the target T1, D(3) dopamine receptor (Homo sapiens, UniProt P35462).
Description: Intrinsic activity against dopamine receptor D3 by Eu-GTP binding assay
Assay [2] has as its target T1, D(3) dopamine receptor. The experiment in a line: biochemical.
Description: Displacement of [3H]spiroperidol from cloned human dopamine receptor D3 in CHO cell membrane

T1 sequence (P35462 whole entry): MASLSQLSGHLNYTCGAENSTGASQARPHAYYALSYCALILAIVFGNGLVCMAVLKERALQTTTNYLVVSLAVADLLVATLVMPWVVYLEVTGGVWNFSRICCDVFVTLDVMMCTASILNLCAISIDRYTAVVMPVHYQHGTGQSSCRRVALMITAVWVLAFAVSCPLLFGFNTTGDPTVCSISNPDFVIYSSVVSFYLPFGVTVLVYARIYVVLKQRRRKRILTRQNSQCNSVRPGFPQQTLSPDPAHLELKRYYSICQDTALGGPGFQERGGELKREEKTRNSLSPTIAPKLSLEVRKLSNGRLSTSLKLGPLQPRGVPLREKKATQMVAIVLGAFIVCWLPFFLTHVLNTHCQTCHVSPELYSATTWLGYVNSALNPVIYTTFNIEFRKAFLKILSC

A word on the EC50: it is the concentration at which the effect is half-maximal. A higher EC50 goes with a need for much substance. By Ki is commonly meant the dissociation constant of the complex between target and ligand, obtained from inhibition or displacement. A high value points to weaker binding. On to `O=C(NCCCCN1CCN(c2cccc(Cl)c2Cl)CC1)[C@H]1CC[C@@H](c2ccccc2)CC1`, for which the EC50 in assay [1] is 631 nM. The molecule further returned a Ki in assay [2] of 10.6 nM. In assay [2], `COc1ccccc1N1CCN(CCCCNC(=O)c2cccc3ccccc23)CC1` yielded a Ki of 32.6 nM. In other words, the double-digit nanomolar range. The molecule `COc1ccccc1N1CCN(CCCCNC(=O)c2ccc3c(c2)Cc2ccccc2-3)CC1` showed an EC50 in assay [1] of 49 nM. In addition, the affinity in assay [2] corresponds to a Ki of 0.52 nM. Take `COc1ccccc1N1CCN(CCCCNC(=O)[C@H]2CC[C@@H](c3ccccc3)CC2)CC1`: in assay [1], it took 1820 nM to reach a half-maximal effect (EC50). This molecule displayed a Ki in assay [2] of 20.6 nM.

The molecule `COc1ccccc1N1CCN(CCCCNC(=O)[C@H]2CC[C@H](c3ccccc3)CC2)CC1` yielded a Ki in assay [2] of 3.4 nM. In turn, `O=C(NCCCCN1CCN(c2cccc(Cl)c2Cl)CC1)c1ccc2ccccc2c1` yielded a Ki in assay [2] of 7.9 nM. `O=C(NCCCCN1CCN(c2cccc(Cl)c2Cl)CC1)[C@H]1CC[C@H](c2ccccc2)CC1`: the affinity in assay [2], expressed as Ki, was 22.8 nM. `COc1ccccc1N1CCN(CCCCNC(=O)c2ccc(-c3ccccc3)cc2)CC1`: the affinity in assay [2] corresponds to a Ki of 0.3 nM. The molecule `O=C(NCCCCN1CCN(c2cccc(Cl)c2Cl)CC1)c1cccc2ccccc12` had a 50% effective concentration (EC50) in assay [1] of 60.3 nM. In assay [2], this molecule gave a Ki of 6.9 nM. Turning to `O=C(NCCCCN1CCN(c2cccc(Cl)c2Cl)CC1)c1ccc(-c2ccccc2)cc1`, the Ki in assay [2] was 1.98 nM. Take `O=C(NCCCCN1CCN(c2cccc(Cl)c2Cl)CC1)c1ccccc1`: in assay [1], it took 209 nM to reach a half-maximal effect (EC50). In addition, affinity in assay [2] was put at a Ki of 11.9 nM.
